Reference: the supplement of paper PMC11208160

Assay: recombinant UMI read abundance after kanamycin selection (control-corrected) (log10(CPM+1)); higher = more efficient recombination; extreme values may be limits of the assay; sequences stand for … in AGTGCAGAGAAAATCGGCCAGTTTTCTCTGCCTGCAGTCCGCATGCCGTGGGACCCCTTGGGTTCTAACCTGTTGCCTAGATTTATGCAGCGGACTGCCTTTCTCCCAAAGTGATAAACCGG…AGGTTGGTTTCACT; site = the 11-nt donor
How it was run: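 In a pooled Escherichia coli screen for the IS621 bridge recombinase, donor and donor-binding-loop pairs were each placed with a 12-nt UMI on a plasmid bearing a promoterless kanamycin gene. This library was co-electroporated with a target plasmid encoding a fixed target and T7-inducible recombinase, and cells were plated either on IPTG (0.07 mM) plus kanamycin or without selection, in two replicates each. Recombinant UMIs were PCR-amplified across the donor–target junction and sequenced, and counts were converted to CPM, averaged over replicates, scaled by control-derived factors and reported as log10(CPM+1).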
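Note: IS621 bridge recombinase in Escherichia coli cells against a fixed T5 target plasmid.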

| Sequence | recombinant UMI read abundance (log10) |
| --- | --- |
| ATAGTCGCATGGACCGGTTTTCCCGGTAATCCGTATTTGCG (site GTAGTCGCTCG) | 0.0129 |
| ATAGTCGCATGGACCGGTTTTCCCGGTAATCCGTATTTGCG (site TTAGTCGCTCG) | 0.00819 |
| ATAGTCTCATGGACCGGTTTTCCCGGTAATCCGTATTTGAG (site ATAGTCTCTCT) | 2 |
| ATAGTGGCATGGACCGGTTTTCCCGGTAATCCGTATTTGGC (site ATAGTGGCTGC) | 2.85 |
| ATAGTTTCATGGACCGGTTTTCCCGGTAATCCGTATTTGCA (site ACAGTATCTTG) | 1.49 |
| ATAGTTTCATGGACCGGTTTTCCCGGTAATCCGTATTTGCA (site ATAGTTTCTTG) | 2.47 |
| ATATAGACATGGACCGGTTTTCCCGGTAATCCGTATTTGCT (site ATATAGACTAG) | 2.72 |
| ATATCGCCATGGACCGGTTTTCCCGGTAATCCGTATTTGAT (site ATATCGCCTAT) | 0.284 |
| ATATCTGCATGGACCGGTTTTCCCGGTAATCCGTATTTGTA (site ATATCTGCTTA) | 2 |
| ATATTCACATGGACCGGTTTTCCCGGTAATCCGTATTTGTT (site ATATTCACTAA) | 1.75 |
| ATCAAGACATGGACCGGTTTTCCCGGTAATCCGTATTTGCA (site AGGAAGACTTG) | 0.783 |
| ATCAAGACATGGACCGGTTTTCCCGGTAATCCGTATTTGCA (site ATCAAGACTTG) | 2.31 |
| ATCAAGGCATGGACCGGTTTTCCCGGTAATCCGTATTTGTC (site ATCAAGGCTGA) | 1.53 |
| ATCAATACATGGACCGGTTTTCCCGGTAATCCGTATTTGCA (site ATCAATACTTG) | 1.44 |
| ATCATTGCATGGACCGGTTTTCCCGGTAATCCGTATTTGGC (site ATCATTGCTGC) | 2.13 |
| ATCCAAGCATGGACCGGTTTTCCCGGTAATCCGTATTTGAA (site ATCCAAGCTAT) | 0.379 |
| ATCCAAGCATGGACCGGTTTTCCCGGTAATCCGTATTTGAA (site ATCCAAGCTCT) | 0.445 |
| ATCCAAGCATGGACCGGTTTTCCCGGTAATCCGTATTTGAA (site ATCCAAGCTGT) | 0.751 |
| ATCCAAGCATGGACCGGTTTTCCCGGTAATCCGTATTTGAA (site ATCCAAGCTTT) | 1.29 |
| ATCCAAGCATGGACCGGTTTTCCCGGTAATCCGTATTTGGG (site ATCCAAGCTCA) | 0.0113 |
| ATCCAAGCATGGACCGGTTTTCCCGGTAATCCGTATTTGGG (site ATCCAAGCTCC) | 0.365 |
| ATCCAAGCATGGACCGGTTTTCCCGGTAATCCGTATTTGGG (site ATCCAAGCTCG) | 0.0298 |
| ATCCAAGCATGGACCGGTTTTCCCGGTAATCCGTATTTGGG (site ATCCAAGCTCT) | 0.00791 |
| ATCCAATCATGGACCGGTTTTCCCGGTAATCCGTATTTGAG (site ATCCAAACTCT) | 0.00423 |
| ATCCAATCATGGACCGGTTTTCCCGGTAATCCGTATTTGAG (site ATCCAACCTCT) | 0.0188 |

| Sequence | recombinant UMI read abundance (log10) |
| --- | --- |
| ATCCAATCATGGACCGGTTTTCCCGGTAATCCGTATTTGAG (site ATCCAAGCTCT) | 0.0117 |
| ATCCAATCATGGACCGGTTTTCCCGGTAATCCGTATTTGAG (site ATCCAATCTCT) | 1.04 |
| ATCCAGGCATGGACCGGTTTTCCCGGTAATCCGTATTTGAG (site ATCCAAGCTCT) | 0.547 |
| ATCCAGGCATGGACCGGTTTTCCCGGTAATCCGTATTTGAG (site ATCCACGCTCT) | 0.013 |
| ATCCAGGCATGGACCGGTTTTCCCGGTAATCCGTATTTGAG (site ATCCAGGCTCT) | 0 |
| ATCCAGGCATGGACCGGTTTTCCCGGTAATCCGTATTTGAG (site ATCCATGCTCT) | 0.382 |
| ATCCAGGCATGGACCGGTTTTCCCGGTAATCCGTATTTGCC (site ATCCAGGCTGG) | 0 |
| ATCCATACATGGACCGGTTTTCCCGGTAATCCGTATTTGAC (site ATCAATACTGT) | 0 |
| ATCCATACATGGACCGGTTTTCCCGGTAATCCGTATTTGAC (site ATCCATACTGT) | 1.77 |
| ATCCATACATGGACCGGTTTTCCCGGTAATCCGTATTTGAC (site ATCGATACTGT) | 0 |
| ATCCATACATGGACCGGTTTTCCCGGTAATCCGTATTTGAC (site ATCTATACTGT) | 0 |
| ATCCCCTCATGGACCGGTTTTCCCGGTAATCCGTATTTGGA (site ATCCCCTCTTC) | 1.95 |
| ATCCCGGCATGGACCGGTTTTCCCGGTAATCCGTATTTGAG (site CGAAGCCCTAG) | 0 |
| ATCCGACCATGGACCGGTTTTCCCGGTAATCCGTATTTGTC (site ATCCGACCTGA) | 0 |
| ATCCTTTCATGGACCGGTTTTCCCGGTAATCCGTATTTGAC (site AACCTTTCTGT) | 0 |
| ATCCTTTCATGGACCGGTTTTCCCGGTAATCCGTATTTGAC (site ACCCTTTCTGT) | 0 |
| ATCCTTTCATGGACCGGTTTTCCCGGTAATCCGTATTTGAC (site AGCCTTTCTGT) | 0 |
| ATCCTTTCATGGACCGGTTTTCCCGGTAATCCGTATTTGAC (site ATCCTTTCTGT) | 0 |
| ATCGAATCATGGACCGGTTTTCCCGGTAATCCGTATTTGAA (site ATCGAATCTTT) | 2.58 |
| ATCGCCTCATGGACCGGTTTTCCCGGTAATCCGTATTTGGG (site ATCGCCTCTCC) | 0.29 |
| ATCGCGTCATGGACCGGTTTTCCCGGTAATCCGTATTTGAA (site ATCGCGTCTTT) | 2.01 |
| ATCGTGCCATGGACCGGTTTTCCCGGTAATCCGTATTTGTT (site ATCGTGCCTAA) | 0.0076 |
| ATCTAAACATGGACCGGTTTTCCCGGTAATCCGTATTTGAC (site ATCTAAACTGT) | 2.72 |
| ATCTAAACATGGACCGGTTTTCCCGGTAATCCGTATTTGAC (site ATCTACACTGT) | 0.25 |
| ATCTAAACATGGACCGGTTTTCCCGGTAATCCGTATTTGAC (site ATCTAGACTGT) | 0 |

| Sequence | recombinant UMI read abundance (log10) |
| --- | --- |
| ATCTAAACATGGACCGGTTTTCCCGGTAATCCGTATTTGAC (site ATCTATACTGT) | 0.00453 |
| ATCTACACATGGACCGGTTTTCCCGGTAATCCGTATTTGAC (site ATCTAAACTGT) | 1.21 |
| ATCTACACATGGACCGGTTTTCCCGGTAATCCGTATTTGAC (site ATCTACACTGT) | 2.83 |
| ATCTACACATGGACCGGTTTTCCCGGTAATCCGTATTTGAC (site ATCTAGACTGT) | 0 |
| ATCTACACATGGACCGGTTTTCCCGGTAATCCGTATTTGAC (site ATCTATACTGT) | 0.824 |
| ATCTAGACATGGACCGGTTTTCCCGGTAATCCGTATTTGAG (site ATCTAGACTCT) | 1.31 |
| ATCTAGGCATGGACCGGTTTTCCCGGTAATCCGTATTTGGC (site ATATAGGCTGC) | 0 |
| ATCTAGGCATGGACCGGTTTTCCCGGTAATCCGTATTTGGC (site ATCTAGGCTGC) | 0 |
| ATCTAGGCATGGACCGGTTTTCCCGGTAATCCGTATTTGGC (site ATGTAGGCTGC) | 0 |
| ATCTAGGCATGGACCGGTTTTCCCGGTAATCCGTATTTGGC (site ATTTAGGCTGC) | 0 |
| ATCTATACATGGACCGGTTTTCCCGGTAATCCGTATTTGAG (site ATCTATACTAT) | 0.478 |
| ATCTATACATGGACCGGTTTTCCCGGTAATCCGTATTTGAG (site ATCTATACTCT) | 1.31 |
| ATCTATACATGGACCGGTTTTCCCGGTAATCCGTATTTGAG (site ATCTATACTGT) | 0 |
| ATCTATACATGGACCGGTTTTCCCGGTAATCCGTATTTGAG (site ATCTATACTTT) | 0.0268 |
| ATCTATACATGGACCGGTTTTCCCGGTAATCCGTATTTGGC (site ATCTATACTGA) | 1.09 |
| ATCTATACATGGACCGGTTTTCCCGGTAATCCGTATTTGGC (site ATCTATACTGC) | 2.23 |
| ATCTATACATGGACCGGTTTTCCCGGTAATCCGTATTTGGC (site ATCTATACTGG) | 0 |
| ATCTATACATGGACCGGTTTTCCCGGTAATCCGTATTTGGC (site ATCTATACTGT) | 2.09 |
| ATCTGTACATGGACCGGTTTTCCCGGTAATCCGTATTTGAC (site ATCTATACTGT) | 0 |
| ATCTGTACATGGACCGGTTTTCCCGGTAATCCGTATTTGAC (site ATCTCTACTGT) | 0 |
| ATCTGTACATGGACCGGTTTTCCCGGTAATCCGTATTTGAC (site ATCTGTACTGT) | 1.31 |
| ATCTGTACATGGACCGGTTTTCCCGGTAATCCGTATTTGAC (site ATCTTTACTGT) | 0 |
| ATCTGTCCATGGACCGGTTTTCCCGGTAATCCGTATTTGAT (site ATCTGTCCTAT) | 0.0326 |
| ATGAAGGCATGGACCGGTTTTCCCGGTAATCCGTATTTGCA (site AGGAAGACTTG) | 0.763 |
| ATGAAGGCATGGACCGGTTTTCCCGGTAATCCGTATTTGCA (site ATGAAGGCTTG) | 2.91 |
